PubChem BioAssay AID1919016 (Molecular Pharmacology Branch, DTP, NCI, 2023)
Several values for one entry are separate records, joined by “and”; a condition that tells them apart may be missing. Equal entries are not always repeated.

Test system: NCI-H196 complex spheroid growth, percent test/control
Assay: Anticancer human tumor NCI-H196 cell line growth inhibition [AhR];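 also: seven days of drug exposure starting three days after plating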;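 as to viability, T/C: 100% = DMSO vehicle control wells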
Conditions: for viability, T/C: stronger effect = lower value
Outline: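 Spheroids combined tumor cells with HUVEC endothelial cells and human MSCs as stroma. AhR antagonists were paired with standard or investigational drugs, each dosed in half-log steps down from near clinical Cmax, or from 10 microM where Cmax was unknown.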

[1] = curve of first compound, second compound 0.1 µM
[2] = curve of first compound, second compound 0.316 µM
[3] = curve of first compound, second compound 1 µM
[4] = curve of first compound, second compound 3.16 µM
[5] = curve of first compound, second compound 10 µM
[6] = second compound 0.1 µM, first compound 0.0316 µM
[7] = second compound 0.1 µM, first compound 0.1 µM
[8] = second compound 0.1 µM, first compound 0.316 µM
[9] = second compound 0.1 µM, first compound 1 µM
[10] = second compound 0.1 µM, first compound 3.16 µM
[11] = second compound 0.1 µM, first compound 10 µM
[12] = second compound 0.316 µM, first compound 0.0316 µM
[13] = second compound 0.316 µM, first compound 0.1 µM
[14] = second compound 0.316 µM, first compound 0.316 µM
[15] = second compound 0.316 µM, first compound 1 µM
[16] = second compound 0.316 µM, first compound 3.16 µM
[17] = second compound 0.316 µM, first compound 10 µM
[18] = second compound 1 µM, first compound 0.0316 µM
[19] = second compound 1 µM, first compound 0.1 µM
[20] = second compound 1 µM, first compound 0.316 µM
[21] = second compound 1 µM, first compound 1 µM
[22] = second compound 1 µM, first compound 3.16 µM
[23] = second compound 1 µM, first compound 10 µM
[24] = second compound 3.16 µM, first compound 0.0316 µM
[25] = second compound 3.16 µM, first compound 0.1 µM
[26] = second compound 3.16 µM, first compound 0.316 µM
[27] = second compound 3.16 µM, first compound 1 µM
[28] = second compound 3.16 µM, first compound 3.16 µM
[29] = second compound 3.16 µM, first compound 10 µM
[30] = second compound 10 µM, first compound 0.0316 µM
[31] = second compound 10 µM, first compound 0.1 µM
[32] = second compound 10 µM, first compound 0.316 µM
[33] = second compound 10 µM, first compound 1 µM
[34] = second compound 10 µM, first compound 3.16 µM
[35] = second compound 10 µM, first compound 10 µM
[36] = second compound 0.1 µM, first compound 0.00316 µM
[37] = second compound 0.1 µM, first compound 0.01 µM
[38] = second compound 0.316 µM, first compound 0.00316 µM
[39] = second compound 0.316 µM, first compound 0.01 µM
[40] = second compound 1 µM, first compound 0.00316 µM
[41] = second compound 1 µM, first compound 0.01 µM
[42] = second compound 3.16 µM, first compound 0.00316 µM
[43] = second compound 3.16 µM, first compound 0.01 µM
[44] = second compound 10 µM, first compound 0.00316 µM
[45] = second compound 10 µM, first compound 0.01 µM

IC50 [1] | IC50 [2] | IC50 [3] | IC50 [4] | IC50 [5] | Compound | viability, T/C [6] | viability, T/C [7] | viability, T/C [8] | viability, T/C [9] | viability, T/C [12] | viability, T/C [13] | viability, T/C [14] | viability, T/C [15] | viability, T/C [18] | viability, T/C [19] | viability, T/C [20] | viability, T/C [21] | viability, T/C [24] | viability, T/C [25] | viability, T/C [26] | also measured
> 10000 nM | > 10000 nM | > 10000 nM | > 10000 nM | > 10000 nM | CC1COCCN1c1cc(C2(S(C)(=N)=O)CC2)nc(-c2ccnc3[nH]ccc23)n1 (centres undefined) + CC(CO)NC(=O)c1cc(-c2ccc(Cl)cc2)nn(-c2cnn(C)c2)c1=O | 106% | 115% | 98.6% | 117% | 103% | 110% | 114% | 104% | 113% | 114% | 114% | 109% | 119% | 126% | 106% | viability, T/C [10]: 101%; viability, T/C [11]: 87%; viability, T/C [16]: 89.8%; viability, T/C [17]: 91.1%; viability, T/C [22]: 100%; viability, T/C [23]: 85.8%; viability, T/C [27]: 111%; viability, T/C [28]: 99.3%; viability, T/C [29]: 83.8%; viability, T/C [30]: 113%; viability, T/C [31]: 115%; viability, T/C [32]: 109%; viability, T/C [33]: 120%; viability, T/C [34]: 103%; viability, T/C [35]: 81.8%
> 1000 nM | > 1000 nM | > 1000 nM | > 1000 nM | > 1000 nM | CC1COCCN1c1cc(-c2ccnn2C)c2ccnc(-c3ccn[nH]3)c2n1 (centres undefined) + CC(CO)NC(=O)c1cc(-c2ccc(Cl)cc2)nn(-c2cnn(C)c2)c1=O | 101% | 79.3% | 72.2% | 61.1% | 97.9% | 78.6% | 66.3% | 68.5% | 101% | 90.8% | 77.4% | 71% | 98% | 82.4% | 80% | viability, T/C [36]: 104%; viability, T/C [37]: 109%; viability, T/C [38]: 105%; viability, T/C [39]: 98.9%; viability, T/C [40]: 108%; viability, T/C [41]: 104%; viability, T/C [42]: 111%; viability, T/C [43]: 102%; viability, T/C [27]: 66.5%; viability, T/C [44]: 103%; viability, T/C [45]: 98.5%; viability, T/C [30]: 107%; viability, T/C [31]: 89.4%; viability, T/C [32]: 74.2%; viability, T/C [33]: 79.8%
> 1000 nM | > 1000 nM | > 1000 nM | > 1000 nM | > 1000 nM | CC1COCCN1c1cc(-c2ccnn2C)c2ccnc(-c3ccn[nH]3)c2n1 (centres undefined) + Cc1ccccc1N=Nc1ccc(NC(=O)c2ccnn2C)c(C)c1 | 86% | 66% | 58.3% | 53% | 87.5% | 71.3% | 52.2% | 52.7% | 85.5% | 71.1% | 56% | 52.1% | 91.5% | 70.5% | 56.6% | viability, T/C [36]: 96.4%; viability, T/C [37]: 90.9%; viability, T/C [38]: 98.9%; viability, T/C [39]: 96.1%; viability, T/C [40]: 85.2%; viability, T/C [41]: 94.5%; viability, T/C [42]: 89.2%; viability, T/C [43]: 94.2%; viability, T/C [27]: 49.9%; viability, T/C [44]: 96.8%; viability, T/C [45]: 88.9%; viability, T/C [30]: 77.9%; viability, T/C [31]: 74.6%; viability, T/C [32]: 63.4%; viability, T/C [33]: 52.8%

Continued, molecule first:

Compound | IC50 [1] | IC50 [2] | IC50 [3] | IC50 [4] | IC50 [5] | viability, T/C [6] | viability, T/C [7] | viability, T/C [8] | viability, T/C [9] | viability, T/C [12] | viability, T/C [13] | viability, T/C [14] | viability, T/C [15] | viability, T/C [18] | viability, T/C [19] | viability, T/C [20] | viability, T/C [21] | viability, T/C [24] | viability, T/C [25] | viability, T/C [26] | also measured
COc1cc(C2c3cc4c(cc3C(OC3OC5COC(C)OC5C(O)C3O)C3COC(=O)C23)OCO4)cc(OC)c1O (centres undefined) + CC(CO)NC(=O)c1cc(-c2ccc(Cl)cc2)nn(-c2cnn(C)c2)c1=O | > 10000 nM | > 10000 nM | > 10000 nM | > 10000 nM | > 10000 nM | 113% | 116% | 101% | 112% | 109% | 118% | 102% | 104% | 117% | 106% | 119% | 106% | 103% | 110% | 119% | viability, T/C [10]: 104%; viability, T/C [11]: 101%; viability, T/C [16]: 109%; viability, T/C [17]: 94.9%; viability, T/C [22]: 110%; viability, T/C [23]: 105%; viability, T/C [27]: 110%; viability, T/C [28]: 117%; viability, T/C [29]: 97.9%; viability, T/C [30]: 126%; viability, T/C [31]: 128%; viability, T/C [32]: 114%; viability, T/C [33]: 109%; viability, T/C [34]: 115%; viability, T/C [35]: 95.6%
CCc1c2c(nc3ccc(O)cc13)-c1cc3c(c(=O)n1C2)COC(=O)[C@]3(O)CC | – | – | – | – | – | – | – | – | – | – | – | – | – | – | – | – | – | – | – | – | viability, T/C (compound 0.000949 µM): 89.6% and 96.8% and 99.8%; viability, T/C (compound 0.003 µM): 98.3% (2×) and 108%; viability, T/C (compound 0.00949 µM): 96.8% and 95.2% and 99.4%; viability, T/C (compound 0.03 µM): 96.7% and 109% (2×); viability, T/C (compound 0.0949 µM): 90.5% and 101% and 110%; viability, T/C (compound 0.3 µM): 96.5% and 83.3% and 95.6%; IC50 (curve of compound): > 300 nM
COc1cc(C2c3cc4c(cc3C(OC3OC5COC(C)OC5C(O)C3O)C3COC(=O)C23)OCO4)cc(OC)c1O (centres undefined) + Cc1cncc(-c2nc(NCCc3c[nH]c4ccccc34)c3ncn(C(C)C)c3n2)c1 | > 10000 nM | > 10000 nM | > 10000 nM | > 10000 nM | > 10000 nM | 104% | 103% | 98.9% | 99.8% | 104% | 109% | 101% | 105% | 99.7% | 112% | 104% | 109% | 108% | 114% | 112% | viability, T/C [10]: 103%; viability, T/C [11]: 96.7%; viability, T/C [16]: 112%; viability, T/C [17]: 89.4%; viability, T/C [22]: 103%; viability, T/C [23]: 77.8%; viability, T/C [27]: 105%; viability, T/C [28]: 100%; viability, T/C [29]: 81.9%; viability, T/C [30]: 89.1%; viability, T/C [31]: 92%; viability, T/C [32]: 101%; viability, T/C [33]: 84.3%; viability, T/C [34]: 77.4%; viability, T/C [35]: 62%
Nc1ccccc1NC(=O)c1ccc(CNC(=O)OCc2cccnc2)cc1 | – | – | – | – | – | – | – | – | – | – | – | – | – | – | – | – | – | – | – | – | viability, T/C (compound 0.0316 µM): 84.5% and 90.6% and 85.8%; viability, T/C (compound 0.1 µM): 73.3% and 82.2% and 79.5%; viability, T/C (compound 0.316 µM): 59.8% and 65.2% and 60.3%; viability, T/C (compound 1 µM): 35.9% and 48.4% and 33.5%; viability, T/C (compound 3.16 µM): 15.2% and 17.5% and 16.5%; viability, T/C (compound 10 µM): 0.66% and 0.89% and 0.63%; IC50 (curve of compound): 492 nM and 773 nM and 509 nM
